US20240390306A1, “Monohydrate Salt of Denatonium Acetate” (priority 2021, published 2024)
“Also recorded” adds a separate entry of the source. Read-outs that look alike come from different tables or passages of the source.

What was measured:
[1] = Gravimetric Vapor Sorption (GVS) experiments; assay type: physicochemical
Procedure: Several Gravimetric Vapor Sorption (GVS) experiments were carried out to investigate the behavior of DAM over a range of different relative humidity levels. […] This experiment used a similar method to GVS 1 without the steps involving 90% RH where the large mass changes were observed and equilibrium was not reached. […] Most of the mass change (1.3-1.4% increase) occurred between 0-10% RH. […] It also loses mass when taken to relative humidity levels of less than 10%.

[2] = Particle size distribution; assay type: physicochemical
Text: The sample was highly crystalline.

[3] = Storage under stress conditions (temperature / relative humidity); assay type: physicochemical
Text: It also lost mass when taken to relative humidity levels of less than 10%.
It also loses mass when taken to relative humidity levels of less than 10%.
It was then removed from the instrument and a portion immediately analyzed by XRPD.

[4] = Polymorph screen: solvent addition to ca. 10 mg DAM, initial observation (solubility); assay type: physicochemical
[5] = as above; assay type: physicochemical; remark: listed apart in the source
Procedure: The resultant samples were refrigerated (solutions) or shaken at room temperature (suspensions) for several days. The samples that had initially formed solutions were examined for signs of solid formation after refrigeration. If solid material had formed, it was analyzed by XRPD. If no solid had formed the vials were uncapped and the solutions evaporated, and solid residues analyzed by XRPD. For samples which had initially formed suspensions-if solid was still present it was analyzed by XRPD. The supernatant from the suspension was filtered and then the filtrates were then treated as the solutions above. In some experiments further solid was obtained from evaporation of the filtrates and was analyzed by XRPD where the quantity of material allowed.

[6] = assay type: physicochemical; details: for form by XRPD after storage: closed vial, 6 weeks
Text: It was then removed from the instrument and a portion immediately analyzed by XRPD. […]
A summary of the characterization data for the samples of Pattern 5 can be found in Table 9.

CC(=O)[O-].CC[N+](CC)(CC(=O)Nc1c(C)cccc1C)Cc1ccccc1 [DAM, denatonium acetate monohydrate]
sample appearance after GVS ([1]; post GVS 1 (40-90-0-90-0-40)): sorption cycle. Sample had formed a solid mass with powdery
sample appearance after GVS ([1]; post GVS 2 (40-80-0-80-0-40), acetate monohydrate): remained as a free-flowing powder; also recorded: Sample remained free flowing solid
sample appearance after GVS ([1]; post GVS 3 (40-0-80-0-80-0-40), acetate monohydrate): remained as a free-flowing powder; also recorded: Sample remained free flowing solid
PSD D10 [2]: 1.62 μm
PSD D50 [2]: 23.09 μm
form by XRPD after storage ([3]; 0% RH (open vial in GVS instrument, 2 days), acetate monohydrate): converted to Pattern 5; also recorded: consistent with Pattern 5; also recorded: change in form to Pattern 5
form by XRPD after storage ([3]; 25° C., 96% RH, 7 days): Amorphous
form by XRPD after storage ([3]; 40° C., 75% RH, 7 days): Shows no change in form by XRPD after 7 days
Initial observation ([4]; ca. 10 mg in 1,2-Dimethoxyethane, 1000 μL): Suspension
Initial observation ([4]; ca. 10 mg in 1,4-Dioxane, 1000 μL): Suspension
Initial observation ([4]; ca. 10 mg in 1-Butanol, 50 μL): Soluble
Initial observation ([4]; ca. 10 mg in 1-Propanol, 25 μL): Soluble
Initial observation ([4]; ca. 10 mg in 2-Methyl-1-Propanol, 50 μL): Soluble
Initial observation ([4]; ca. 10 mg in 2-Pentanone, 1000 μL): Suspension
Initial observation ([4]; ca. 10 mg in 2-Propanol, 50 μL): Soluble
Initial observation ([4]; ca. 10 mg in 3-Methyl-1-Butanol, 50 μL): Soluble
Initial observation ([4]; ca. 10 mg in 4-Methyl-2-pentanone, 1000 μL): Suspension
Initial observation ([4]; ca. 10 mg in Acetone + 5% water, 50 μL): Solution
Initial observation ([4]; ca. 10 mg in Acetonitrile, 200 μL): Soluble
Initial observation ([4]; ca. 10 mg in Anisole, 750 μL): Suspension
Initial observation ([4]; ca. 10 mg in Benzonitrile, 500 μL): Nearly all
Initial observation ([4]; ca. 10 mg in Benzyl alcohol, 25 μL): Solution
Initial observation ([4]; ca. 10 mg in Butyl acetate, 1000 μL): Suspension
Initial observation ([4]; ca. 10 mg in Chloroform, 50 μL): Soluble
Initial observation ([4]; ca. 10 mg in Cumene, 1000 μL): Suspension
Initial observation ([4]; ca. 10 mg in Diethyl ether, 1000 μL): Suspension
Initial observation ([4]; ca. 10 mg in EtOH + 5% water, 25 μL): Solution
Initial observation ([4]; ca. 10 mg in Ethanol, 25 μL): Soluble
Initial observation ([4]; ca. 10 mg in Formic acid, 25 μL): Soluble
Initial observation ([4]; ca. 10 mg in IPA + 5% water, 50 μL): Solution
Initial observation ([4]; ca. 10 mg in Isobutyl acetate, 1000 μL): Suspension
Initial observation ([4]; ca. 10 mg in Isopropyl acetate, 1000 μL): Suspension
Initial observation ([4]; ca. 10 mg in Methanol, 25 μL): Soluble
Initial observation ([4]; ca. 10 mg in Methyl acetate, 1000 μL): Suspension
Initial observation ([4]; ca. 10 mg in Methylbutyl ketone, 1000 μL): Suspension
Initial observation ([4]; ca. 10 mg in Pentane, 1000 μL): Suspension
Initial observation ([4]; ca. 10 mg in Propyl acetate, 1000 μL): Suspension
Initial observation ([4]; ca. 10 mg in Toluene, 1000 μL): Suspension
Initial observation ([4]; ca. 10 mg in Water, 20 μL): Soluble
Initial observation ([4]; ca. 10 mg in heptane, 1000 μL): Suspension
Initial observation ([4]; ca. 10 mg in t-Butanol, 100 μL): Soluble
Initial observation ([4]; ca. 10 mg in t-Butylmethyl ether, 1000 μL): Suspension
Initial observation ([5]; ca. 10 mg in 1-Pentanol, 50 μL): Soluble
Initial observation ([5]; ca. 10 mg in 2-Butanol, 50 μL): Soluble
Initial observation ([5]; ca. 10 mg in 2-Ethoxyethanol, 25 μL): Soluble
Initial observation ([5]; ca. 10 mg in 2-Methoxyethanol, 25 μL): Soluble
Initial observation ([5]; ca. 10 mg in Acetic acid, 25 μL): Soluble
Initial observation ([5]; ca. 10 mg in Acetone, 1000 μL): Soluble
Initial observation ([5]; ca. 10 mg in Diisopropyl ether, 1000 μL): Suspension
Initial observation ([5]; ca. 10 mg in Dimethylsulfoxide, 100 μL): Solution
Initial observation ([5]; ca. 10 mg in Ethyl acetate, 1000 μL): Suspension
Initial observation ([5]; ca. 10 mg in Ethyl formate, 50 μL): Soluble
Initial observation ([5]; ca. 10 mg in MeCN + 5% water, 50 μL): Solution
Initial observation ([5]; ca. 10 mg in MeOH + 5% water, 25 μL): Solution
Initial observation ([5]; ca. 10 mg in Methylethyl ketone, 800 μL): Soluble
Initial observation ([5]; ca. 10 mg in Tetrahydrofuran, 1000 μL): Suspension

CC(=O)[O-].CC[N+](CC)(CC(=O)Nc1c(C)cccc1C)Cc1ccccc1 [Pattern 5]
form stability [6]: metastable
form after standing ([6]; ambient laboratory conditions, within a few hours): converts to Pattern 1
form by XRPD after storage [6]: converted to Pattern 1
form by XRPD after storage ([6]; listed as DAM Pattern 5): Conversion to Pattern 1 by XRPD
form by XRPD after standing ([6]; on XRPD disc at room temperature overnight): convert to Pattern 1; also recorded: reverted to Pattern 1
form by XRPD after standing ([6]; on XRPD disc at room temperature overnight, listed as DAM Pattern 5): Conversion to Pattern 1 by XRPD
form by XRPD after standing ([6]; on XRPD disc, ambient laboratory conditions, 4 hours, listed as DAM Pattern 5): Conversion to Pattern 1 by XRPD
